One may read the IC50 as the concentration that inhibits the measured activity by half. High values mean a need for much substance, low ones inhibition by little substance.

Drawing on patent publication US5866588A, “Imidazopyridine derivatives” (British Biotech Pharmaceuticals Ltd., priority 1995, dated 1999), this text covers activity and IC50 for 14 molecules.

In assay [1] the target is T1, histamine-1 receptors on Hela-S3 cells (Homo sapiens, UniProt P35367).
T1 construct: histamine-1 receptors on Hela-S3 cells (American Type Culture Collection); host or cells: HeLa-S3 cells (intact cell suspension)
T1 sequence (P35367 whole entry): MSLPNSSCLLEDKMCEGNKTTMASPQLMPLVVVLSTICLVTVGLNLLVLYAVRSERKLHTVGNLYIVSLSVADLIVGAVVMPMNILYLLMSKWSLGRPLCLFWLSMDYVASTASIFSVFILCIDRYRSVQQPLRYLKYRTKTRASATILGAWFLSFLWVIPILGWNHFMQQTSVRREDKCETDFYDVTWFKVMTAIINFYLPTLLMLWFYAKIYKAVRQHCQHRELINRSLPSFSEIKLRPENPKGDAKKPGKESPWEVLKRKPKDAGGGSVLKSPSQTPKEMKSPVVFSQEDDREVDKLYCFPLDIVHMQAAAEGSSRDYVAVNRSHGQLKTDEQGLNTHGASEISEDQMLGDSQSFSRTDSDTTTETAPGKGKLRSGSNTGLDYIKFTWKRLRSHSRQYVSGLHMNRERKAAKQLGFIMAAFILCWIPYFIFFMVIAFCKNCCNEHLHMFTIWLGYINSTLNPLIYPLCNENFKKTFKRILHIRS
Kind of assay: Inhibition of [^3 H]-Pyrilamine Binding to Histamine-1 Receptors on Hela-S3 Cells. The note with it: 0.5 h; 1 μM test compound; [^3 H]-pyrilamine remaining specifically bound; 37° C., 30 minutes; read-out: % Specific Binding at 1 μM. As to the method:
Inhibition of [^3 H]-Pyrilamine Binding to Histamine-1 Receptors on Hela-S3 Cells
The inhibition of [^3 H]-pyrilamine binding to histamine-1 receptors on Hela-S3 cells (American Type Culture Collection) was determined by isotopic labelling and filtration techniques. A suspension of the cells in buffer (25 ml, 0.5% Bovine Serum Albumin, 0.1% sodium azide, phosphate buffered saline (PBS)) was centrifuged at 1000 rpm for 5 minutes in a JOUAN CR 422 centrifuge, collected, resuspended in buffer (25 ml) and spun again. The cells were counted using a haemocytometer and resuspended in buffer to provide a final concentration of 4.5×10^6 cells ml^-1. A portion of the Hela-S3 cell suspension (1 ml) was added to each assay tube containing 25 μl of vehicle (50% DMSO/buffer) or 25 μl of test compound solution (dissolved in DMSO and diluted with sufficient PBS to give a final test concentration of 1 μM) and 25 μl of [^3 H]-pyrilamine (supplied by Amersham International and diluted with PBS to 3 nM). The tubes were mixed, incubated at 37° C. for 30 minutes and then spun at 4° C. at 2000 rpm for 2 minutes. The supernatant was removed and the cells resuspended in buffer (repeated ×2). The cells were suspended in 300 μl of a 2:1 solution of 1M sodium hydroxide and 1% sodium dodecyl sulphate. The tubes were left ovemight before the contents were tranferred to a scintillation vial, treated with 10 ml, OPTIPHASE MP scintillation fluid (OPTIPHASE MP is a trade mark) and the radioactivity counted in a scintillation counter. Non-displacable binding (NDB) was determined using Astemizole (5×10^-5 M) in place of test compounds. Defining the counts for total binding from the vehicle control sample as "TB" and the counts for total binding with antogonist as "TBA" the percentage specific binding (% SB) can be determined from the following equation.

Assay [2] has as its system PAF-Induced Platelet Aggregation. Kind of assay: Inhibition of PAF-Induced Platelet Aggregation. Particulars: Oryctolagus cuniculus; rabbit platelet-rich plasma, PAF 100 ngml^-1. It is filed as cell-based, rabbit (New Zealand White). The protocol: Inhibition of PAF-Induced Platelet Aggregation
Male New Zealand White rabbits (3.0-3.5 kg) were anaesthetised by intravenous administration of sodium pentobarbitone, 18 mg.ml^-1, via a marginal ear vein. The trachea was exposed and connected to a respiratory pump (Harvard UK) to provide artificial ventilation. A carotid artery was exposed and cannulated and the animal was exsanguinated. Whole blood was collected in a syringe containing tri-sodium citrate (3.8% w/v) to a ratio of 1 part citrate:9 parts blood.
Collected blood was centrifuged at 180×g for 15 minutes at room temperature (21° C.) to prepare platelet-rich plasma (PRP). The remaining blood was then centrifuged at 1800×g for 10 minutes at room temperature to obtain platelet poor plasma (PPP).
Platelet count of the PRP was measured using a Technicon H1 blood cell differential analyser (Bayer Diagnostics UK) and adjusted with PPP to obtain a final platelet count of 500,000 platelets per μl of plasma, this being the normal physiological platelet count for rabbits. Corrected PRP was left to equilibrate at room temperature for 30 minutes before use.
Aggregation studies were carried out using a 4-channel aggregometer (PAP-4C, BioData USA) as follows: 400 μl aliquots of PRP were placed in siliconised cuvettes and incubated to 37° C. for 1 to 2 minutes in the heating block of the aggregometer. Baseline (100% aggregation) was set up using PPP (500 μl in a siliconised cuvette). The PRP was placed into a measuring well of the aggregometer, and a stirrer bar was added. The sample was stirred at 1000 rpm. The machine was activated to set the 0% aggregation level. Test compound or vehicle (50 μl) was added to the PRP, where any effects on the baseline was noted. PAF (100 ngml^-1 as 50 μl aliqout) was added to the PRP 3 minutes after test compound or vehicle. Aggregation was measured for a further 4 minutes after PAF addition and the maximum aggregation over the 4 minutes was recorded.
The investigation of different concentrations of test compound was performed in triplicate. Data were expressed as […] of the sample and test compound data were compared to vehicle data to obtain % inhibition of the PAF-induced aggregation from which IC50 values could be determined.
PAF was made up in sterile saline (NaCl 0.9% w/v) containing BSA (0.25% w/v) from an initial stock solution (10 mgml^-1 in EtOH). Test compounds were made up as 1×10^-3 M stock solutions in sterile saline containing molar equivalents of 1N HCl (v/v) or in DMSO.
In the results which follow, a comparison compound A was included. Compound A was prepared as described in EP-A-260613 (G. D. Searle), but is not part of the present invention. As appears from the results of the comparison, compounds of this invention, all of which incorporate a fragment capable of H1 antagonist activity, are observed to show improved PAF antagonist activity over compound A.

`CCC(C)N(C/C=C/c1cccc(/C(=C/CN2CCCC2)c2ccc(C)cc2)n1)C(=O)c1ccc(Cn2c(C)nc3cnccc32)cc1` (racemic) [Example 9, N-(R,S) sec-Butyl-4-(1H-2-methylimidazo[4,5-c]pyridin-1-ylmethyl)-N-(E)-{3-[6-(3-pyrrolidin-1-yl-1-{4-tolyl}-prop-1E-enyl)-pyridin-2-yl]-prop-2-enyl}-benzamide]: the activity at 1 µM in assay [1] turned out to be 63%. The molecule also displayed an IC50 in assay [2] of 43 nM.

As to `CN(C(=O)c1ccc(Cn2cnc3cnccc32)cc1)C1CCCCC1` [Compound A, reference compound], the IC50 in assay [2] worked out at 74000 nM.

Consider `Cc1ccc(/C(=C\CN2CCCC2)c2cccc(/C=C/COC(=O)c3ccc(Cn4c(C)nc5cnccc54)cc3)n2)cc1` [Example 1, 4-(1H-2-Methylimidazo[4,5-c]pyridin-1-ylmethyl)benzoic acid 3-[6-(3-pyrrolidin-1-yl-1-{4-tolyl}-prop-1E-enyl)-pyridin-2-yl]prop-2E-enyl ester], for which the activity at 1 µM in assay [1] worked out at 16%. The molecule further showed an IC50 in assay [2] of 2100 nM.

Turning to `Cc1ccc(/C(=C\CN2CCCC2)c2cccc(CCCOC(=O)c3ccc(Cn4c(C)nc5cnccc54)cc3)n2)cc1` [Example 2, 4-(1H-2-Methylimidazo[4,5-c]pyridin-1-ylmethyl)benzoic acid 3-[6-(3-pyrrolidin-1-yl-1-{4-tolyl}-prop-1E-enyl)-pyridin-2-yl]propyl ester], the activity at 1 µM in assay [1] turned out to be 15%. This molecule showed an IC50 in assay [2] of 542 nM.

Consider `Cc1ccc(/C(=C\CN2CCCC2)c2cccc(/C=C/CNC(=O)c3ccc(Cn4c(C)nc5cnccc54)cc3)n2)cc1` [Example 5, 4-(1H-2-Methylimidazo[4,5-c]pyridin-1-ylmethyl)-N-{3-[6-(3-pyrrolidino-1-{4-tolyl}-prop-1E-enyl)-pyridin-2-yl]-prop-2E-enyl}-benzamide], for which the activity at 1 µM in assay [1] amounted to 16%. This molecule also showed an IC50 in assay [2] of 2200 nM.

Consider `Cc1ccc(/C(=C\CN2CCCC2)c2cccc(/C=C/CN(CCC(C)C)C(=O)c3ccc(Cn4c(C)nc5cnccc54)cc3)n2)cc1` [Example 6, N-(3-Methyl-but-1-yl)-4-(1H-2-methylimidazo[4,5-c]pyridin-1-ylmethyl)-N-{3-[6-(3-pyrrolidin-1-yl-1-{4-tolyl}-prop-1E-enyl)-pyridin-2-yl]-prop-2E-enyl}-benzamide], for which, in assay [1], the activity at 1 µM worked out at 29%. In assay [2], this molecule returned an IC50 of 333 nM.

Turning to `Cc1ccc(/C(=C\CN2CCCC2)c2cccc(/C=C/CN(CC(C)C)C(=O)c3ccc(Cn4c(C)nc5cnccc54)cc3)n2)cc1` [Example 7, N-iso-Butyl-4-(1H-2-methylimidazo[4,5-c]pyridin-1-ylmethyl)-N-{3-[6-(3-pyrrolidin-1-yl-1-{4-tolyl}-prop-1E-enyl)-pyridin-2-yl]-prop-2E-enyl}-benzamide], the activity at 1 µM in assay [1] turned out to be 40%. In addition, the IC50 in assay [2] is 133 nM.

Regarding `Cc1ccc(/C(=C\CN2CCCC2)c2cccc(/C=C/CN(C(=O)c3ccc(Cn4c(C)nc5cnccc54)cc3)C3CCCC3)n2)cc1` [Example 8, N-Cyclopentyl-4-(1H-2-methylimidazo[4,5-c]pyridin-1-ylmethyl)-N-{3-[6-(3-pyrrolidin-1-yl-1-{4-tolyl}-prop-1E-enyl)-pyridin-2-yl]-prop-2E-enyl}-benzamide], the activity at 1 µM in assay [1] turned out to be 34%. The same molecule returned an IC50 in assay [2] of 92 nM.

As for `Cc1ccc(/C(=C\CN2CCCC2)c2cccc(/C=C/CN(C(=O)c3ccc(Cn4c(C)nc5cnccc54)cc3)C(C)(C)C)n2)cc1` [Example 10, N-tert-Butyl-4-(1H-2-methylimidazo[4,5-c]pyridin-1-ylmethyl)-N-{3-[6-(3-pyrrolidin-1-yl-1-{4-tolyl}-prop-1E-enyl)-pyridin-2-yl]-prop-2E-enyl}-benzamide], in assay [1], the activity at 1 µM was 62%. Besides, inhibition in assay [2] was half-maximal at 2010 nM (IC50).

For `Cc1ccc(/C(=C\CN2CCCC2)c2cccc(/C=C/CN(C(=O)c3ccc(Cn4c(C)nc5cnccc54)cc3)C3CC(C)CC(C)C3)n2)cc1` (centres unmarked) [Example 11, N-3,5-Dimethylcyclohexyl-4-(1H-2-methylimidazo[4,5-c]pyridin-1-ylmethyl)-N-{3-[6-(3-pyrrolidin-1-yl-1-{4-tolyl}-prop-1E-enyl)-pyridin-2-yl]-prop-2E-enyl)-benzamide], in assay [1], the activity at 1 µM stood at 60%. In assay [2], this molecule gave an IC50 of 176 nM.

Take `Cc1ccc(/C(=C\CN2CCCC2)c2cccc(/C=C/CN(C(=O)c3ccc(Cn4c(C)nc5cnccc54)cc3)C(C)C)n2)cc1` [Example 12, N-iso-Propyl-4-(1H-2-methylimidazo[4,5-c]pyridin-1-ylmethyl)-N-{3-[6-(3-pyrrolidin-1-yl-1-{4-tolyl}-prop-1E-enyl)-pyridin-2-yl]-prop-2E-enyl)-benzamide]: in assay [1], the activity at 1 µM was 64%. Also, the IC50 in assay [2] was determined as 58 nM.

In the case of `Cc1ccc(/C(=C\CN2CCCC2)c2cccc(CCCN(C(=O)c3ccc(Cn4c(C)nc5cnccc54)cc3)C3CCCCC3)n2)cc1` [Example 17, N-Cyclohexyl-4-(1H-2-methylimidazo[4,5-c]pyridin-1-ylmethyl)-N-{3-[6-(3-pyrrolidin-1-yl-1-{4-tolyl}-prop-1E-enyl)-pyridin-2-yl]-propyl}-benzamide], the activity at 1 µM in assay [1] came to 58%. For the same molecule, the IC50 in assay [2] was found to be 315 nM.

For `CCCCN(C/C=C/c1cccc(/C(=C/CN2CCCC2)c2ccc(C)cc2)n1)C(=O)c1ccc(Cn2c(C)nc3cnccc32)cc1` [Example 22, N-Butyl-4-(1H-2-methylimidazo[4,5-c]pyridin-1-ylmethyl)-N-{3-[6-(3-pyrrolidin-1-yl-1-{4-tolyl}-prop-1E-enyl)-pyridin-2-yl]-prop-2E-enyl}-benzamide], the activity at 1 µM in assay [1] is 31%. This molecule also registered an IC50 in assay [2] of 62 nM.

As for `Cc1ccc(/C(=C\CN2CCCC2)c2cccc(/C=C/CN(C)C(=O)c3ccc(-n4c(C)nc5cnccc54)cc3)n2)cc1` [Example 26, N-Methyl-4-(1H-2-methylimidazo[4,5-c]pyridin-1-yl)-N-{3-[6-(3-pyrrolidin-1-yl-1-{4-tolyl}-prop-1E-enyl)-pyridin-2-yl]-prop-2E-enyl}-benzamide], the activity at 1 µM in assay [1] amounted to 26%.
